Reference: patent US20110130449A1, “Assay for Monitoring Activity of Jmjd6” (Isis Innovation Limited, priority 2008, published 2011)
Square brackets hold non-standard residues; d marks the D form. Ends that are not written are not given here. Arg(Me2s) = CN=C(NC)NCCC[C@H](N)C(=O)O

Experiments:
Jmjd6 [1] = biological target: T1, Jmjd6 (Homo sapiens, UniProt Q6NYC1); test: Standard assay for Jmjd6 oxygenase activity: peptide hydroxylation by MALDI-TOF MS; type: biochemical; conditions: for activity (hydroxylation of LUC7-like2 peptides): Table 4, standard assay conditions; for mass shift relative to un-reacted peptide: incubation with Jmjd6, oxygen, ascorbate, Fe(II), 2OG, MALDI-TOF MS
Excerpt: All peptides tested as potential substrates of Jmjd6 were synthesised in-house by a Intavis MultiPep automated multiple synthesiser, using Tentagel amide resin (Intavis). Fluorenylmethoxycarbonyl (Fmoc)-protected amino acids were coupled with N,N′-diisopropylcarbodiimide (DIC)/1-hydroxybenzotriazole (HOBt). Cleavage of the completed peptides from the resin used CF3CO2H (TFA)/[…]. Predicted masses were confirmed by MALDI-TOF mass spectrometry. Standard assay conditions were used and are described above.
To determine whether U2AF65, CROP and LUC7-like2 were substrates of Jmjd6, multiple peptides were synthesized based on the RS domains of these proteins (FIG. 8). Initial peptides were synthesized with dimethylated arginine residues because it was speculated that Jmjd6 may be an arginine demethylase (FIG. 9). To determine whether any of these peptides were Jmjd6 substrates, incubations were carried out in the presence of oxygen, ascorbate, Fe(II) and 2OG; and peptide modifications were analyzed by MALDI-TOF MS.

Jmjd6 [2] = biological target: T1, Jmjd6; test: biochemical; type: biochemical; conditions: for inhibitory effect on Jmjd6 activity / rank of inhibition of Jmjd6 activity (in words): 100 μM inhibitor, substrate peptide d; for hydroxylation of peptide d, as observed by MALDI: 100 μM compound added to assay; for enhancers of Jmjd6 activity (statement): chelating agents
Description: (§1) Standard assays consisted of the substrate mixture: peptide (100 μM), 2OG (500 μM), ascorbate (100 μM) in Tris (50 mM, pH 7.5); and the enzyme mixture: FeNH4SO4 (100 μM) and Jmjd6 (10 μM) in Tris (50 mM, pH 7.5). The reaction was initiated by mixing the substrate and enzyme mixtures and incubating at 37° C. for 30-60 minutes. The reaction was quenched by adding TFA to a final concentration of 0.1% and incubating on ice. Hydroxylation of the peptide was analysed by a MALDI TOF micro MX mass spectrometer (Waters Micromass); where the assay mixture (1 μL), along with α-cyano-4-hydroxycinnamic acid MALDI (CHCA) matrix in 60% acetonitrile/0.1% TFA (1 μL), was spotted directly onto the target plate. To determine whether modification of peptide was Jmjd6-dependent assays were performed omitting either 2OG or Fe(II). To determine whether Jmjd6 was inhibited by N-oxaloylglycine (NOG), NOG (24 mM) was added to the substrate component of the assay system.
To determine the pH profile of Jmd6 standard peptide assays were performed over a pH range of 6 to 9. Buffers used were piperazine-N,N′-bis(ethanesulfonic acid) (PIPES) (pH 6.0 and 6.5), 4-(2-hydroxyethyl)-1-piperazineethanesulfonic acid (HEPES) (pH 7.0 to 8.0) and N,N-bis(2-hydroxyethyl) glycine (BICINE) (pH 8.5 and 9.0). Inhibition assays were performed under identical conditions as described for the standard assays except either succinate (1 mM) or fumarate (1 mM) were included in the substrate mixture.
A control without inhibitor was included as a reference.

[3] = test system: full-length Jmjd6 (SEQ ID NO:1), Jmjd6 residues 1 to 343, Jmjd6 residues 25 to 338; conditions: peptide d 100 μM; FIGS. 18 and 19
Description: as §1

[4] = succinate (1 mM) or fumarate (1 mM) in substrate mixture

20 (NPKKSKSREHRR) [No 20] was tested. Which “activity (hydroxylation of LUC7-like2 peptides)” value (Jmjd6 [1]) did it give?
The value was “double”.

With 21 (NPKKSKSKEHRR) [No 21] as the compound, how does the “activity (hydroxylation of LUC7-like2 peptides)” value (Jmjd6 [1]) read?
Its value is “double”.

For 22 (NPKKSKSKEHKK) [No 22], which “activity (hydroxylation of LUC7-like2 peptides)” value (Jmjd6 [1]) is on record?
The value was “double”.

How did the “activity (hydroxylation of LUC7-like2 peptides)” value (Jmjd6 [1]) turn out when 23 (NPKRSRSKEHKK) [No 23] was run?
The value was “yes”.

Which “activity (hydroxylation of LUC7-like2 peptides)” value (Jmjd6 [1]) does the source give for 24 (NPKRSRSREHKK) [No 24] here?
The value was “yes”.

Which results are given for `O=C(O)c1c[nH]c2c(ccc3cccnc32)c1=O` [FG0041]?
inhibitory of Jmjd6 lysyl hydroxylase activity (statement) (Jmjd6 [2]): inhibitory; inhibitory effect on Jmjd6 activity (Jmjd6 [2]): ~50%

For `O=C(O)CNC(=O)c1nc(Cl)c2ccccc2c1O` [FG2216], which “inhibitory of Jmjd6 lysyl hydroxylase activity (statement)” value (shortened to “inhibitory … (statement)”) (Jmjd6 [2]) is on record?
Its value is “inhibitory”.

What about the “inhibitory effect on Jmjd6 activity” value (Jmjd6 [2]) of the same compound?
Its value is roughly 50%.

What does the source list for `O=C(O)CNC(=O)C(=O)O` [NOG, N-oxalylglycine]?
inhibitory of Jmjd6 lysyl hydroxylase activity (statement) (Jmjd6 [2]): inhibitory; inhibition of hydroxylation of peptide d, as observed by MALDI (Jmjd6 [2]; 12 mM NOG in the assay mixture): completely inhibited; inhibition of the +16 mass shift in peptide d (Jmjd6 [2]; NOG 24 mM added to substrate component, FIG. 11 legend 120 mM): completely inhibited; inhibition at 100 µM (Jmjd6 [2]; read-out: inhibitory effect on Jmjd6 activity): < 20%

How did the “inhibitory … (statement)” value (Jmjd6 [2]) turn out when `O=C(O)/C=C/C(=O)O` [fumarate] was run?
The value was “inhibitory”.

What about the “rank of inhibition of Jmjd6 activity (in words)” value (Jmjd6 [2]) of the same compound?
The value was “most potent inhibitors”.

And the “inhibition of the +16 mass shift in peptide d” value (Jmjd6 [2]; [4])?
The value was “completely inhibited”.

How did the “inhibitory … (statement)” value (Jmjd6 [2]) turn out when `O=c1c(-c2ccc(O)cc2)coc2cc(O)cc(O)c12` [genistein] was run?
The value was “inhibitory”.

Which “inhibitory … (statement)” value (Jmjd6 [2]) does the source give for `O=C(O)c1ccnc(C(=O)O)c1` [pyridine-2,4-dicarboxylic acid] here?
Its value is “inhibitory”.

What about the “rank of inhibition of Jmjd6 activity (in words)” value (Jmjd6 [2]) of the same compound?
Its value is “most potent inhibitors”.

For `O=C(O)c1ccc(C(=O)O)nc1` [pyridine-2,5-dicarboxylic acid], which “hydroxylation of peptide d, as observed by MALDI” value (Jmjd6 [2]) is on record?
The value was 100%.

And the “enhancers of Jmjd6 activity (statement)” value (Jmjd6 [2])?
Its value is “Enhancers”.

With `O=C(O)c1cccc(C(=O)O)n1` [pyridine-2,6-dicarboxylic acid] as the compound, how does the “hydroxylation of peptide d, as observed by MALDI” value (Jmjd6 [2]) read?
The value was 100%.

And the “enhancers of Jmjd6 activity (statement)” value (Jmjd6 [2])?
The value was “Enhancers”.

What does the source list for `O=C(O)CCC(=O)O` [succinate]?
inhibitory of Jmjd6 lysyl hydroxylase activity (statement) (Jmjd6 [2]): inhibitory; rank of inhibition of Jmjd6 activity (in words) (Jmjd6 [2]): most potent inhibitors; inhibition of the +16 mass shift in peptide d (Jmjd6 [2]; [4]): completely inhibited

Which “mass shift relative to un-reacted peptide” value (Jmjd6 [1]) does the source give for “NPKRSRSR(Me2sym))EHRRHRSR (chain 1 NPKRSRS[Arg(Me2s)]; also: chains 1 and 2 form one continuous peptide) [No 1]” here?
Its value is “+16”.

With NPKRSRSREHRR [No 12] as the compound, how does the “hydroxylation of peptide d by truncated and full-length Jmjd6” value [3] read?
The value was “hydroxylated”.

“SHSRSR(Me2sym)SRDRKRRSRS ({Ser-H2N-Ser-Arg-Ser-(R(Me2sym))}-SRDRKRRSRS) [No 10]” was tested. Which “mass shift relative to un-reacted peptide” value (Jmjd6 [1]) did it give?
Its value is “+16”.

Which “mass shift relative to un-reacted peptide” value (Jmjd6 [1]) does the source give for “SHSRSRSR(Me2sym)DRKRRSRS (chain 1 SHSRSRS[Arg(Me2s)]; also: chains 1 and 2 form one continuous peptide) [No 9]” here?
The value was “+16”.
